Assays:
giant foxtail [1] = assay: Test A postemergence; type: in vivo, Setaria faberii; settings: Setaria faberi, post-emergence, 240 h, 0 to 100 scale where 0 is no effect and 100 is complete control
How it was run: (§1)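 Visual 0–100 rating (100 = complete control) taken about 10 d post-treatment relative to untreated checks. Preemergence: directed soil spray on sown loam/sand pots. Postemergence: seedlings 2–10 cm, 1–2 leaf. Non-phytotoxic solvent formulation with surfactant.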

pigweed [2] = assay: Test A postemergence; type: in vivo, Amaranthus retroflexus; settings: Amaranthus retroflexus, post-emergence, 0 to 100 scale where 0 is no effect and 100 is complete control
How it was run: as §1

corn [3] = assay: Test A postemergence; type: in vivo, Zea mays; settings: Zea mays, post-emergence, 240 h, 0 to 100 scale where 0 is no effect and 100 is complete control
How it was run: as §1

galium = assay: Test C preemergence; type: in vivo, Galium aparine; settings: Galium, pre-emergence
How it was run: (§2)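 Seeds were sown in loam–sand blend and sprayed preemergence, while plants at 1- to 4-leaf stage (2–18 cm) in peat-based medium received postemergence sprays; test chemicals were formulated in a non-phytotoxic solvent with surfactant. After 13–15 days in a greenhouse, injury was rated visually against controls, 0 (no effect) to 100 (complete control).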

corn [4] = assay: Test C preemergence; type: in vivo, Zea mays; settings: Zea mays, pre-emergence
How it was run: as §2

lambsquarters [5] = assay: Test C preemergence; type: in vivo, Chenopodium album; settings: Chenopodium album, pre-emergence, preemergence, read-out: Lambsquarters plant response rating
How it was run: as §2

morningglory [6] = assay: Test C preemergence; type: in vivo, Ipomoea coccinea; settings: Ipomoea, pre-emergence, preemergence, read-out: Morningglory plant response rating
How it was run: as §2

ragweed [7] = assay: Test C preemergence; type: in vivo, Ambrosia elatior; settings: Ambrosia artemisiifolia, pre-emergence, preemergence, read-out: Ragweed plant response rating
How it was run: as §2

velvetleaf = assay: Test C preemergence; type: in vivo, Abutilon theophrasti; settings: Abutilon theophrasti, pre-emergence, preemergence, read-out: Velvetleaf plant response rating
How it was run: as §2

large (Lg) crabgrass = assay: Test C postemergence; type: in vivo, Digitaria sanguinalis; settings: Digitaria sanguinalis, post-emergence
How it was run: as §2

giant foxtail [8] = assay: Test C postemergence; type: in vivo, Setaria faberii; settings: Setaria faberi, post-emergence
How it was run: as §2

lambsquarters [9] = assay: Test C postemergence; type: in vivo, Chenopodium album; settings: Chenopodium album, post-emergence
How it was run: as §2

morningglory [10] = assay: Test C postemergence; type: in vivo, Ipomoea coccinea; settings: Ipomoea, post-emergence
How it was run: as §2

pigweed [11] = assay: Test C postemergence; type: in vivo, Amaranthus retroflexus; settings: Amaranthus retroflexus, post-emergence
How it was run: as §2

ragweed [12] = assay: Test C postemergence; type: in vivo, Ambrosia elatior; settings: Ambrosia artemisiifolia, post-emergence
How it was run: as §2

soybean = assay: Test C postemergence; type: in vivo, Glycine max; settings: Glycine max, post-emergence
How it was run: as §2

waterhemp = assay: Test C postemergence; type: in vivo, Amaranthus rudis; settings: Amaranthus tuberculatus, post-emergence
How it was run: as §2

[13] = 16 g ai/ha, scale 0 to 100 (0 no effect, 100 complete control)
[14] = 62 g ai/ha, scale 0 (no effect) to 100 (complete control)
[15] = 125 g ai/ha, scale 0 (no effect) to 100 (complete control)

## FC(F)(F)COc1cnn(-c2ccccc2Oc2ncc(Cl)cn2)c1 [Compound 138, 5-chloro-2-[2-[4-(2,2,2-trifluoroethoxy)-1H-pyrazol-1-yl]phenoxy]pyrimidine]
Giant foxtail [1]; 125 g ai/ha, read-out: Foxtail, Giant plant response rating
  pest or weed control at 125 g/ha: 90%
Giant foxtail [1]; 500 g ai/ha, read-out: Plant response rating, Foxtail, Giant
  pest or weed control at 500 g/ha: 100%
Pigweed [2]; 500 g ai/ha, read-out: Plant response rating, Pigweed
  pest or weed control at 500 g/ha: 100%
Pigweed [2]; 240 h, 125 g ai/ha, read-out: Pigweed plant response rating
  pest or weed control at 125 g/ha: 100%
Corn [3]; 125 g ai/ha, read-out: Corn plant response rating
  plant injury at 125 g/ha: 60%
Corn [3]; 500 g ai/ha
  Corn plant response rating (crop injury, 0 = no effect, 100 = complete kill) at 500 g/ha: 90%
galium; 16 g ai/ha, preemergence, scale 0 to 100 (0 no effect, 100 complete control), read-out: Galium plant response rating
  pest or weed control at 16 g/ha: 90%
galium; 62 g ai/ha, preemergence, scale 0 (no effect) to 100 (complete control), read-out: Galium plant response rating
  pest or weed control at 62 g/ha: 90%
galium; 125 g ai/ha, preemergence, scale 0 (no effect) to 100 (complete control), read-out: Galium plant response rating
  pest or weed control at 125 g/ha: 100%
galium; Preemergence, 31 g ai/ha, scale 0 to 100, 0 no effect, 100 complete control, read-out: Plant response rating, Galium
  pest or weed control at 31 g/ha: 90%
Corn [4]; 16 g ai/ha, preemergence, scale 0 to 100 (0 no effect, 100 complete control), read-out: Corn plant response rating
  plant injury at 16 g/ha: 0%
Corn [4]; 62 g ai/ha, preemergence, scale 0 (no effect) to 100 (complete control), read-out: Corn plant response rating
  plant injury at 62 g/ha: 0%
Corn [4]; 125 g ai/ha, preemergence, scale 0 (no effect) to 100 (complete control), read-out: Corn plant response rating
  plant injury at 125 g/ha: 25%
Corn [4]; Preemergence, 31 g ai/ha, scale 0 to 100, 0 no effect, 100 complete control
  Corn plant response rating (crop injury, 0 = no effect, 100 = complete kill) at 31 g/ha: 0%
Lambsquarters [5]; [13]
  pest or weed control at 16 g/ha: 100%
Lambsquarters [5]; [14]
  pest or weed control at 62 g/ha: 100%
Lambsquarters [5]; [15]
  pest or weed control at 125 g/ha: 100%
Morningglory [6]; [13]
  pest or weed control at 16 g/ha: 0%
Morningglory [6]; [14]
  pest or weed control at 62 g/ha: 10%
Morningglory [6]; [15]
  pest or weed control at 125 g/ha: 35%
Ragweed [7]; [13]
  pest or weed control at 16 g/ha: 0%
Ragweed [7]; [14]
  pest or weed control at 62 g/ha: 5%
Ragweed [7]; [15]
  pest or weed control at 125 g/ha: 10%
velvetleaf; [13]
  pest or weed control at 16 g/ha: 60%
velvetleaf; [14]
  pest or weed control at 62 g/ha: 98%
velvetleaf; [15]
  pest or weed control at 125 g/ha: 100%
Large (Lg) crabgrass; 16 g ai/ha, postemergence, 0 is no effect, 100 is complete control, read-out: Plant response rating (0 to 100), Crabgrass, Large
  pest or weed control at 16 g/ha: 10%
Large (Lg) crabgrass; 125 g ai/ha, postemergence, visual rating, scale 0 to 100 (0 no effect, 100 complete control), read-out: Plant response rating, Crabgrass, Large
  pest or weed control at 125 g/ha: 15%
Large (Lg) crabgrass; Postemergence, 62 g ai/ha, scale 0 to 100 (0 no effect, 100 complete control), read-out: Plant response rating, Crabgrass, Large
  pest or weed control at 62 g/ha: 15%
Giant foxtail [8]; 16 g ai/ha, postemergence, 0 is no effect, 100 is complete control, read-out: Plant response rating (0 to 100), Foxtail, Giant
  pest or weed control at 16 g/ha: 5%
Giant foxtail [8]; 125 g ai/ha, postemergence, visual rating, scale 0 to 100 (0 no effect, 100 complete control), read-out: Plant response rating, Foxtail, Giant
  pest or weed control at 125 g/ha: 50%
Giant foxtail [8]; Postemergence, 62 g ai/ha, scale 0 to 100 (0 no effect, 100 complete control), read-out: Plant response rating, Foxtail, Giant
  pest or weed control at 62 g/ha: 10%
Lambsquarters [9]; 16 g ai/ha, postemergence, 0 is no effect, 100 is complete control, read-out: Plant response rating (0 to 100), Lambsquarters
  pest or weed control at 16 g/ha: 20%
Lambsquarters [9]; 125 g ai/ha, postemergence, visual rating, scale 0 to 100 (0 no effect, 100 complete control), read-out: Plant response rating, Lambsquarters
  pest or weed control at 125 g/ha: 75%
Lambsquarters [9]; Postemergence, 62 g ai/ha, scale 0 to 100 (0 no effect, 100 complete control), read-out: Plant response rating, Lambsquarters
  pest or weed control at 62 g/ha: 60%
Morningglory [10]; 16 g ai/ha, postemergence, 0 is no effect, 100 is complete control, read-out: Plant response rating (0 to 100), Morningglory
  pest or weed control at 16 g/ha: 65%
Morningglory [10]; 125 g ai/ha, postemergence, visual rating, scale 0 to 100 (0 no effect, 100 complete control), read-out: Plant response rating, Morningglory
  pest or weed control at 125 g/ha: 85%
Morningglory [10]; Postemergence, 62 g ai/ha, scale 0 to 100 (0 no effect, 100 complete control), read-out: Plant response rating, Morningglory
  pest or weed control at 62 g/ha: 65%
Pigweed [11]; 16 g ai/ha, postemergence, 0 is no effect, 100 is complete control, read-out: Plant response rating (0 to 100), Pigweed
  pest or weed control at 16 g/ha: 60%
Pigweed [11]; 125 g ai/ha, postemergence, visual rating, scale 0 to 100 (0 no effect, 100 complete control), read-out: Plant response rating, Pigweed
  pest or weed control at 125 g/ha: 80%
Pigweed [11]; Postemergence, 62 g ai/ha, scale 0 to 100 (0 no effect, 100 complete control), read-out: Plant response rating, Pigweed
  pest or weed control at 62 g/ha: 80%
Ragweed [12]; 16 g ai/ha, postemergence, 0 is no effect, 100 is complete control, read-out: Plant response rating (0 to 100), Ragweed
  pest or weed control at 16 g/ha: 40%
Ragweed [12]; 125 g ai/ha, postemergence, visual rating, scale 0 to 100 (0 no effect, 100 complete control), read-out: Plant response rating, Ragweed
  pest or weed control at 125 g/ha: 45%
Ragweed [12]; Postemergence, 62 g ai/ha, scale 0 to 100 (0 no effect, 100 complete control), read-out: Plant response rating, Ragweed
  pest or weed control at 62 g/ha: 40%
soybean; 16 g ai/ha, postemergence, 0 is no effect, 100 is complete control
  Soybean plant response rating (crop injury, 0-100 scale) at 16 g/ha: 40%
soybean; 125 g ai/ha, postemergence, visual rating, scale 0 to 100 (0 no effect, 100 complete control), read-out: Plant response rating, Soybean
  Soybean plant response rating (crop injury, 0-100 scale) at 125 g/ha: 95%
soybean; Postemergence, 62 g ai/ha, scale 0 to 100 (0 no effect, 100 complete control)
  Soybean plant response rating (crop injury, 0-100 scale) at 62 g/ha: 65%
waterhemp; 16 g ai/ha, postemergence, 0 is no effect, 100 is complete control, read-out: Plant response rating (0 to 100), Waterhemp
  pest or weed control at 16 g/ha: 60%
waterhemp; 125 g ai/ha, postemergence, visual rating, scale 0 to 100 (0 no effect, 100 complete control), read-out: Plant response rating, Waterhemp
  pest or weed control at 125 g/ha: 85%
waterhemp; Postemergence, 62 g ai/ha, scale 0 to 100 (0 no effect, 100 complete control), read-out: Plant response rating, Waterhemp
  pest or weed control at 62 g/ha: 75%

Source: patent publication US9695155B2, “Herbicidal substituted pyrimidinyloxy benzene compounds” (E. I. DU PONT DE NEMOURS AND COMPANY, priority 2013, dated 2017)
